In patent publication US5925618A, “Peptides useful as somatostatin antagonists” (American Cyanamid Company, priority 1998, dated 1999):
Square brackets hold non-standard residues; d marks the D form. Peptide text beside a SMILES is read from it.

Assays:
SSTR2 = target: T1, SSTR2 (Rattus norvegicus, UniProt P30680); assay: Competitive binding of 125I labeled S-14 to membranes of cells expressing SSTR2; settings: 125I labeled S-14, membranes
T1 construct: expressed in transfected cells
Protocol: Membrane preparation. Tissue culture cell lines expressing transfected CDNA clones of SSTR2, and SSTR5 are used as a source of plasma membranes which specifically bind ^125 I labeled S-14 (Amersham, Arlington Heights, Ill.). Cells are removed from culture dishes by incubation at 4° C. for 5 minutes in PBS containing 1 mM EDTA, spun down (2,000 rpm, 5') and resuspended in 15 mL homogenization buffer (1 mM sodium bicarbonate pH 7.2, 1 mM EDTA, 1 mM EGTA and the following protease inhibitors: leupeptin and aprotenin at 5 μg/mL and benzamidine and bacitracin at 100 μg/mL). Cells are given 20 strokes with a Dounce homogenizer on ice and spun at 2000 rpm for 10 minutes. Membranes are isolated from the supernatant by centrifugation at 17,000 rpm for 30 minutes. The membrane pellet is washed once in 15 mL homogenization buffer and once in storage buffer (25 mM Tris pH 7.4 containing protease inhibitors). Each wash is followed by centrifugation at 17,000 rpm for 30 minutes. The membrane pellet is resuspended in storage buffer, measured for protein concentration (BioRad, Calif.) and stored at -80° C.
Binding assay. All reagents for the binding assay are prepared in binding buffer (50 mM Hepes pH 7.4, 2 mM EGTA, 5 mM MgCl2 and protease inhibitors). Membranes are thawed on ice and diluted to […] protein/50 μL binding buffer. ^125 I labeled S-14 (Amersham, Arlington Heights, Ill.) is diluted to 80-100,000 cpm/50 μL in binding buffer. Competitors, either test peptides or standards, are prepared at 4× final concentrations in binding buffer, as are wheat germ agglutinin (WGA)-linked PVC beads that contain solid scintillant (SPA beads, Amersham, Arlington Heights, Ill.). The binding assay is initiated by mixing 50 μL each of membranes, radiolabelled S-14, competitors and SPA beads in each well of a 96-well tray. The assay is incubated by shaking for 10-30 minutes at room temperature and then placing at 4° C. overnight. Bound radioligand is determined by counting in a Microbeta Liquid Scintillation counter (Wallac, Gaithersburg, Md.). Binding data is plotted and IC50 and Ki values are calculated for test compounds using Prism software (Graphpad Software Inc., San Diego, Calif.) and are shown in Table V. Binding is expressed as Ki, μM.

[1] = target: T2, S. cerevisiae (yeast) cells expressing SRIF receptors (Rattus norvegicus, UniProt P30680); assay: Yeast bioassay for SRIF antagonist activity (LY364 cells growing in response to SRIF, zone of growth inhibition); format: cell-based; settings: Sample type 4th iteration; 10 μL of 5 mg/mL on disk, SRIF 10 nM, read after 3 days
T2 construct: expressed in transfected cells; host or cells: S. cerevisiae strain LY364
Text: SRIF antagonist assay using S. cerevisiae (yeast) cells expressing SRIF receptors that grow in response to SRIF
Agar plates containing LY364 cells that are growing in the presence of added SRIF are the basis for a sensitive SRIF antagonist assay, whereby zones of growth inhibition result from the addition of SRIF antagonists to the surface of the agar plate (see L. A. Price, et al., Molecular and Cellular Biology, 15, 6188-6195, 1995, incorporated herein by reference).
In this assay, LY364 cells are grown overnight in 2 mL of synthetic complete(SC) medium (3.4 g/L YNB without amino acids and ammonium sulfate, 10 g/L ammonium sulfate and 1.4 g/L CSM-ura-trp) with glucose (2%) and without uracil and tryptophan. These cells are washed and cultured for 4 to 8 hours in 5 mL of SC medium with lactate (3%) and without uracil and tryptophan, and finally grown overnight in 5 mL of SC medium with galactose (2%) and without uracil and tryptophan. Molten (50° C.) SC agar medium with galactose (2%) and without uracil, tryptophan and histidine is adjusted to pH 6.8 with KOH, mixed with 2×10^4 cells/mL and SRIF (S-14, 10 nM) and poured into square (20×20 cm) petri dishes. Sterile filter disks are placed on the surface of the agar, and saturated with 10 μL of water or DMSO containing 5 mg/mL test peptides. After three days, the plates display a uniform cloudy background of LY264 cells growing in response to the added SRIF. […] This zone is quantified by measuring its diameter (mm), which varies according to the potency of the SRIF antagonist. Those peptides or mixtures of peptides displaying the largest zones of inhibition are further characterized.
Values are compared among samples in the same experiment, as the degree of yeast growth varies somewhat from assay to assay. For the first five sample types, in which progressively less complex mixtures of peptides are found, this assay is the primary determining factor in choosing which samples form the basis of subsequent syntheses.
Plates are read after 3 days. Samples shown in Table I in bold type are chosen for further synthesis. In Table I, all amino acids are D-amino acids and dashes represent undefined amino acid residues.

Male Sprague-Dawley rats = assay: Serum growth hormone levels in anaesthetized rats given GRF with and without peptide 1; format: in vivo, rat
Protocol: Evaluation in anaesthetized rats. Male Sprague-Dawley rats are anaesthetized with Sagatal and fitted so as to allow efficient intravenous treatment with control and test compounds as well as frequent blood sampling. Blood samples are tested for growth hormone (GH) levels by radioimmunoassay. Thirty minutes after the initiation of blood sampling, rats are given 5 μg, 25 μg or 50 μg of peptide 1.
Peptide 1 is tested in combination with growth hormone releasing factor (GRF), to investigate whether said peptide may be mimicking the action of GRF. Anaesthetized rats are given GRF (1 μg) alone and in combination with peptide 1 (50 μg).

T2 sequence (P30680 whole entry): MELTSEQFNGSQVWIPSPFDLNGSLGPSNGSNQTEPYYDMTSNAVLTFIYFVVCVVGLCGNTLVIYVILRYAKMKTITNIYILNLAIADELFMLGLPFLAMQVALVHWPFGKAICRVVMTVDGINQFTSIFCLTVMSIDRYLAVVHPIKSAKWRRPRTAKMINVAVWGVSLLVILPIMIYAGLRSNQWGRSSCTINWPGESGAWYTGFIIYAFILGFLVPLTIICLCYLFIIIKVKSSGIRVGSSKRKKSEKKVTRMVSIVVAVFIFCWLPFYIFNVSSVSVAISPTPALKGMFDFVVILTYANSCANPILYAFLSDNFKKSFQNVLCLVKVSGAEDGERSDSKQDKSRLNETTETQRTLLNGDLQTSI
T1 sequence (P30680 whole entry): as above

Molecule	Ki (SSTR2)	Inhibition Zone [1]	also measured
CC[C@@H](C)[C@H]1NC(=O)[C@@H](Cc2ccccc2)NC(=O)[C@@H](Cc2c[nH]cn2)NC(=O)[C@@H](Cc2ccccc2)NC(=O)[C@@H](Cc2c[nH]c3ccccc23)NC(=O)[C@@H](CCCNC(=N)N)NC1=O [#STR6##] (cyclo([dH][dF][dI][dR][dW][dF]))	140 nM	–	–
CC[C@@H](C)[C@@H](NC(=O)[C@@H](Cc1ccccc1)NC(=O)[C@@H](Cc1c[nH]cn1)NC(C)=O)C(=O)N[C@H](CCCNC(=N)N)C(=O)N[C@H](Cc1c[nH]c2ccccc12)C(=O)N[C@H](Cc1c[nH]c2ccccc12)C(N)=O [His Phe Ile Arg Trp Trp] (Ac-[dH][dF][dI][dR][dW][dW]-NH2)	–	16 mm	–
CC[C@@H](C)[C@@H](NC(=O)[C@@H](Cc1c[nH]c2ccccc12)NC(=O)[C@@H](Cc1c[nH]cn1)NC(C)=O)C(=O)N[C@H](CCCNC(=N)N)C(=O)N[C@H](Cc1ccccc1)C(=O)N[C@H](Cc1ccccc1)C(N)=O [Peptide 29, h-w-i-r-f-f] (Ac-[dH][dW][dI][dR][dF][dF]-NH2)	970 nM	–	–
CC[C@@H](C)[C@@H](NC(=O)[C@@H](Cc1ccccc1)NC(=O)[C@@H](Cc1c[nH]cn1)NC(=O)[C@@H](Cc1ccccc1)NC(=O)[C@@H](Cc1c[nH]c2ccccc12)NC(C)=O)C(=O)N[C@H](CCCNC(=N)N)C(N)=O [Peptide 32, w-f-h-f-i-r] (Ac-[dW][dF][dH][dF][dI][dR]-NH2)	37200 nM	–	–
CC[C@@H](C)[C@@H](NC(C)=O)C(=O)N[C@H](CCCNC(=N)N)C(=O)N[C@H](Cc1c[nH]c2ccccc12)C(=O)N[C@H](Cc1ccccc1)C(=O)N[C@H](Cc1c[nH]cn1)C(=O)N[C@H](Cc1ccccc1)C(N)=O [Peptide 33, i-r-w-f-h-f] (Ac-[dI][dR][dW][dF][dH][dF]-NH2)	2800 nM	–	–
growth hormone releasing factor [GRF]	–	–	SGH (Male Sprague-Dawley rats; GRF 1 μg alone or with peptide 1 50 μg at 30 min, sample 35 min): 67.1 ng/mL; SGH (Male Sprague-Dawley rats; GRF 1 μg alone or with peptide 1 50 μg at 30 min, sample 40 min): 103.5 ng/mL; SGH (Male Sprague-Dawley rats; GRF 1 μg alone or with peptide 1 50 μg at 30 min, sample 45 min): 53.1 ng/mL; SGH (Male Sprague-Dawley rats; GRF 1 μg alone or with peptide 1 50 μg, 30 min (time of dosing)): 8.4 ng/mL

Now from value to molecule, other results behind:

Ki (SSTR2)	Inhibition Zone [1]	Molecule	also measured
–	14 mm	CC[C@@H](C)[C@@H](NC(=O)[C@@H](Cc1ccccc1)NC(=O)[C@@H](Cc1c[nH]cn1)NC(C)=O)C(=O)N[C@H](CCCNC(=N)N)C(=O)N[C@H](Cc1c[nH]c2ccccc12)C(=O)N[C@@H](C(N)=O)[C@H](C)O [His Phe Ile Arg Trp Thr] (Ac-[dH][dF][dI][dR][dW][dT]-NH2)	–
–	16 mm	CC[C@@H](C)[C@@H](NC(=O)[C@@H](Cc1ccccc1)NC(=O)[C@@H](Cc1c[nH]cn1)NC(C)=O)C(=O)N[C@H](CCCNC(=N)N)C(=O)N[C@H](Cc1c[nH]c2ccccc12)C(=O)N[C@H](Cc1ccc(O)cc1)C(N)=O [His Phe Ile Arg Trp Tyr] (Ac-[dH][dF][dI][dR][dW][dY]-NH2)	–
2800 nM	–	CC[C@@H](C)[C@@H](NC(=O)[C@@H](CCCNC(=N)N)NC(=O)[C@@H](Cc1c[nH]c2ccccc12)NC(=O)[C@@H](Cc1ccccc1)NC(=O)[C@@H](Cc1c[nH]cn1)NC(C)=O)C(=O)N[C@H](Cc1ccccc1)C(N)=O [Peptide 30, h-f-w-r-i-f] (Ac-[dH][dF][dW][dR][dI][dF]-NH2)	–
2500 nM	–	CC[C@@H](C)[C@@H](NC(=O)[C@@H](CCCNC(=N)N)NC(=O)[C@@H](Cc1ccccc1)NC(=O)[C@@H](Cc1c[nH]cn1)NC(C)=O)C(=O)N[C@H](Cc1c[nH]c2ccccc12)C(=O)N[C@H](Cc1ccccc1)C(N)=O [Peptide 31, h-f-r-i-w-f] (Ac-[dH][dF][dR][dI][dW][dF]-NH2)	–
